Test results as given in ChEMBL document CHEMBL1201862, “PubChem BioAssay data set” (2004).
Activity calls are given as the source filed them.

Assays:
[1] = general mammalian cell viability loss – inhibitor set, cherry-pick, set 2, cytotoxicity control for miR-122 modulator project, dose response (AID 720697); assay type: functional, cell-based
[2] = HIV-1 AD8 envelope cell-cell fusion blockers – cherry-pick, dose response (AID 652062); assay type: functional, cell-based;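 further: luciferase signal from cell-cell fusion driven by HIV-1 clade B AD8 Env; potency is for inhibitors of fusion seen as a drop in luminescence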
[3] = target: T1, COUP transcription factor 2 (Homo sapiens, UniProt P24468); experiment: Luminescence-based cell-based high throughput dose response assay to identify inhibitors of COUP-TFII (NR2F2).; assay type: functional;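 further: HEK293 cells transiently cotransfected with COUP-TFII expression vector and reporter; luciferase reporter luminescence driven by COUP-TFII from the pX2-168 reporter plasmid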
T1 sequence (P24468 whole entry): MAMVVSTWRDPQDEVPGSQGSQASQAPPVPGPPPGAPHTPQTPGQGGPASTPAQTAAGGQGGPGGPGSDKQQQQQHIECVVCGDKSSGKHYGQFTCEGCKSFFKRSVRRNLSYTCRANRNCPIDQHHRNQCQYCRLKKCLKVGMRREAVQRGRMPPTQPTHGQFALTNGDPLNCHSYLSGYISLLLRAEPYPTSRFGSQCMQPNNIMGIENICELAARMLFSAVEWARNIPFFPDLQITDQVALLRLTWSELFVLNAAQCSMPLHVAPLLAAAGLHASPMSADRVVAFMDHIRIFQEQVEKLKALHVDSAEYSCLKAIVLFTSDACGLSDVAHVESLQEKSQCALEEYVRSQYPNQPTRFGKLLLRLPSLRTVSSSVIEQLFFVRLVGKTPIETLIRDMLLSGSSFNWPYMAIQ

cells [4] = assay type: functional, cell-based
[5] = target: T2, Nuclear receptor subfamily 0 group B member 1 (Homo sapiens, UniProt P51843); assay type: functional, cell-based;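 further: HEK293T cells transfected with SF-1 and DAX-1 plus StAR promoter luciferase reporter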
T2 sequence (P51843 whole entry): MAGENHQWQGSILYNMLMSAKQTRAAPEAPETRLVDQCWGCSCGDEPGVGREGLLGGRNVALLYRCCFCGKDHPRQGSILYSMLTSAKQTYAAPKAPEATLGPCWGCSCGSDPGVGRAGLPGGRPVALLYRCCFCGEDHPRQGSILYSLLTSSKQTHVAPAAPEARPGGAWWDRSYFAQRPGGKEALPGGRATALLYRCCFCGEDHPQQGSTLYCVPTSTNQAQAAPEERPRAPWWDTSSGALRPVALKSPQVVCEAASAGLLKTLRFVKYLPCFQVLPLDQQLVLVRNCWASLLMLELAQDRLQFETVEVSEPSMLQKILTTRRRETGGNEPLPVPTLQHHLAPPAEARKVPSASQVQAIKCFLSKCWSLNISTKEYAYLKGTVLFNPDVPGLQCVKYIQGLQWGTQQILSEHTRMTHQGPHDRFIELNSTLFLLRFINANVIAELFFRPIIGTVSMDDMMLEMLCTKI

[6] = target: T3, Probable nicotinate-nucleotide adenylyltransferase (Staphylococcus aureus (strain N315), UniProt P65502); assay type: functional, Staphylococcus aureus subsp. aureus N315;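 on IC50 Mean: confirmatory dose-response retesting of NadD inhibitor hits first found in an ultra-high-throughput screen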
T3 sequence (P65502 whole entry): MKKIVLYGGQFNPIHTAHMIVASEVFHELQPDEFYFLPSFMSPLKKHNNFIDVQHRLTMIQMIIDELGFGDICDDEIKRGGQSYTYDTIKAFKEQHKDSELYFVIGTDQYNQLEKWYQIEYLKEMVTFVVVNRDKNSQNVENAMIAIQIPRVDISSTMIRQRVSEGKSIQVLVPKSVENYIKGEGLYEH

[7] = target: T3, Probable nicotinate-nucleotide adenylyltransferase; assay type: functional, Staphylococcus aureus subsp. aureus N315; conditions: read-out: IC50_Mean
[8] = HEK-293T viability loss, compound-treated – cell-based, uHTS hits, cytotoxicity control for B/T-cell NF-kB inhibitor project, dose response (AID 489019); assay type: functional;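 further: IC50 reflects cytotoxicity as loss of cell viability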
Jurkat = experiment: blockers of NF-kB activation in T cells – Jurkat, luciferase reporter, luminescence, B- and T-cell, dose response (AID 489004); assay type: functional, cell-based; conditions: Homo sapiens;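 further: NF-kB luciferase reporter Jurkat cells stimulated with PMA plus ionomycin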
Beta-lactamase [9] = target: T4, Beta-lactamase (Pseudomonas aeruginosa, UniProt Q79MP6); experiment: […] counterscreen for selective VIM-2 inhibitors: dose response biochemical high throughput screening assay to identify inhibitors of IMP-1 metallo-beta-lactamase.
T4 sequence (Q79MP6 whole entry): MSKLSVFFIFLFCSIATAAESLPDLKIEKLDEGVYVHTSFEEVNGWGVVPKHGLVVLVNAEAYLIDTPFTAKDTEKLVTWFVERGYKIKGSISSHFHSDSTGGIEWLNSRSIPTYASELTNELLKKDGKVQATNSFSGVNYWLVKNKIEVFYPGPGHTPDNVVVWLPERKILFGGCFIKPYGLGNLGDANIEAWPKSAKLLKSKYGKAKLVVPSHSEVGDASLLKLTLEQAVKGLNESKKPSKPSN

Beta-lactamase [10] = target: Beta-lactamase (Salmonella choleraesuis (strain SC-B67), UniProt Q5J463); experiment: Epi-absorbance-based counterscreen for selective VIM-2 inhibitors: dose response biochemical high throughput screening assay to identify inhibitors of TEM-1 serine-beta-lactamase.
Beta-lactamase (Salmonella choleraesuis (strain SC-B67), UniProt Q5J463), sequence (Q5J463 whole entry): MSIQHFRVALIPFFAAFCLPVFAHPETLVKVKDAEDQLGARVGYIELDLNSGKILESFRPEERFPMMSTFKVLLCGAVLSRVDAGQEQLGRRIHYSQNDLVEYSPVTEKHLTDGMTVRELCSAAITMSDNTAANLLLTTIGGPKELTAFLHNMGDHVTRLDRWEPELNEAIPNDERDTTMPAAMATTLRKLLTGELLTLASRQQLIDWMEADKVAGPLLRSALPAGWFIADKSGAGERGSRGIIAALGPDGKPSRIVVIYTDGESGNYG

Beta-lactamase [11] = target: T4, Beta-lactamase; experiment: inhibition of IMP-1 beta-lactamase activity – biochemical, epi-absorbance, selectivity assay for VIM-2 inhibitor project, dose response (AID 1920)
[12] = target: T5, Fructose-bisphosphate aldolase (Mycobacterium tuberculosis, UniProt P9WQA3); experiment: Fluorescence-based biochemical high throughput dose response assay for inhibitors of the fructose-bisphosphate aldolase (FBA) of M. tuberculosis.; assay type: functional
T5 sequence (P9WQA3 whole entry): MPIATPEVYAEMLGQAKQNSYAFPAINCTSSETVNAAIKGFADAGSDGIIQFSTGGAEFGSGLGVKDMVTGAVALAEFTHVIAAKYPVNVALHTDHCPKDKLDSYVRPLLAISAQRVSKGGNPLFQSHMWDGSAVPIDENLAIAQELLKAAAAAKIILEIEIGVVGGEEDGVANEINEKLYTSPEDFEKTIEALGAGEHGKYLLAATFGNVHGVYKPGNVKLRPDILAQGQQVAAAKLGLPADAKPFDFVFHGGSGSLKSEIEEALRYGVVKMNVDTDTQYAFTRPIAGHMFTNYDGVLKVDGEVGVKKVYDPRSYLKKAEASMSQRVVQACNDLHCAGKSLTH

[13] = target: T6, Oxysterols receptor LXR-beta (Homo sapiens, UniProt P55055); assay type: functional, cell-based;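 further: agonist activity at LXR measured by a cell-based luminescence readout across a dose range, run as a counterscreen for daf-12 agonists; HEK293 cells with Gal4-LXR fusion and GAL4-driven luciferase reporter; potency for activation of Gal4-LXR reporter so compounds are agonists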
T6 sequence (P55055 whole entry): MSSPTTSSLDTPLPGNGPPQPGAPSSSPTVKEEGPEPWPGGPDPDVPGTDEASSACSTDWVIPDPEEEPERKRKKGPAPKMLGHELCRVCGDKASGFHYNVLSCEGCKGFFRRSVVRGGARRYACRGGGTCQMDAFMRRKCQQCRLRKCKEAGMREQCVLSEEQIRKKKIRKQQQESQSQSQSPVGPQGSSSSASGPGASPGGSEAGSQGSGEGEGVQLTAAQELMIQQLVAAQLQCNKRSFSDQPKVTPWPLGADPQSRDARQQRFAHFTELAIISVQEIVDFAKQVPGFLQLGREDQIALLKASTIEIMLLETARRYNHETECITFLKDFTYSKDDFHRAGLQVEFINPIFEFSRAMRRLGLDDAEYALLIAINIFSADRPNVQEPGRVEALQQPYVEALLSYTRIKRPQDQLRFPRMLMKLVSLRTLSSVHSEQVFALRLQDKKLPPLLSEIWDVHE

[14] = tested on: Streptococcus sp. 'group A'; experiment: Streptococcus pyogenes SK(-)GAS viability under kanamycin – luminescence, BacTiterGlo, confirmation, counter-screen for streptokinase expression inhibitor project, dose response (AID 1900); assay type: functional, organism-based
[15] = target: T7, Ubiquitin-conjugating enzyme E2 N (Homo sapiens, UniProt P61088); assay type: functional;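 further: Dose-response confirmation in a TR-FRET assay detecting UBC13-driven polyubiquitin chain formation, inhibition measured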
T7 sequence (P61088 whole entry): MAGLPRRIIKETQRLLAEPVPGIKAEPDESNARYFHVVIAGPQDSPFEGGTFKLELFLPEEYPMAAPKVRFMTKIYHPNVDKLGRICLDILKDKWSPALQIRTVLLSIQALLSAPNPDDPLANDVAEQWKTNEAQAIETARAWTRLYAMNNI

Streptococcus = experiment: GAS UMAA2166 growth inhibition – luminescence, BacTiterGlo, counter-screen for streptokinase expression inhibitor project, dose response (AID 1915); assay type: functional, organism-based;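 further: potency for reduction of bacterial viability or growth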
Streptokinase A = target: T8, Streptokinase A (Streptococcus pyogenes serotype M1, UniProt P10520); experiment: viability-normalized secreted streptokinase activity reduction – plasminogen activation absorbance, OD405, dose response (AID 1914); assay type: functional, Streptococcus pyogenes M1 GAS;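 further: secreted streptokinase activity via plasminogen activation per viability signal from cell pellet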
T8 sequence (P10520 whole entry): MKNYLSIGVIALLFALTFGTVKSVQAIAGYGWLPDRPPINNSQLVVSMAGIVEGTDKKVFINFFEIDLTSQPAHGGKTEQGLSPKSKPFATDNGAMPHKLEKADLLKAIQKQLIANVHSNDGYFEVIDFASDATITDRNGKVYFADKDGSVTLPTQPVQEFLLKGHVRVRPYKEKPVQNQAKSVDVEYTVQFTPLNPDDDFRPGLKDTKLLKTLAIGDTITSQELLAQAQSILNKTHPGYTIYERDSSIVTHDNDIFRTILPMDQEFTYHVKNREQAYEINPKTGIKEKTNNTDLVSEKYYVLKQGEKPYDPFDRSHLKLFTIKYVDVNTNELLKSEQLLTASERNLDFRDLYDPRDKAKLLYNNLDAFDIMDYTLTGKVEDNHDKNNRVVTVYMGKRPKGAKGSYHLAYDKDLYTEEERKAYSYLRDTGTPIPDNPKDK

[16] = Luminescence Cell-Based Dose Response HTS to Identify Activators of Luciferase Translation or Activity in H4 […] Cells. [Related pubchem assays: 1829 (Project Summary), 1814 (Primary HTS)]; assay type: functional
H4 = experiment: Luminescence Cell-Based Dose Response HTS to Identify Activators of 5'UTR Stem-Loop Driven Prion Protein mRNA Translation in H4 Neuroglioblastoma Cells. [Related pubchem assays: 1829 (Project Summary), 1814 (Primary HTS)]; assay type: functional; conditions: Homo sapiens
[17] = Luminescence Cell-Based Dose Confirmation HTS to Identify Activators of 5'UTR Stem-Loop Driven Alpha-Synuclein mRNA Translation in H4 Neuroglioblastoma Cells. [Related pubchem assays: 1829 (Project Summary), 1814 (Primary HTS)]; assay type: functional
cells [18] = assay type: functional, cell-based; remark: listed apart in the source
cells [19] = assay type: functional, cell-based; remark: listed apart in the source
Beta-galactosidase = Beta-galactosidase (Escherichia coli, UniProt Q8VNN2); experiment: detection-enzyme interference by beta-gal modulators – biochemical, E. coli enzyme, set 3, artefact control for CCR6 antagonist project, dose response (AID 504712); assay type: functional
Beta-galactosidase, sequence (Q8VNN2 whole entry): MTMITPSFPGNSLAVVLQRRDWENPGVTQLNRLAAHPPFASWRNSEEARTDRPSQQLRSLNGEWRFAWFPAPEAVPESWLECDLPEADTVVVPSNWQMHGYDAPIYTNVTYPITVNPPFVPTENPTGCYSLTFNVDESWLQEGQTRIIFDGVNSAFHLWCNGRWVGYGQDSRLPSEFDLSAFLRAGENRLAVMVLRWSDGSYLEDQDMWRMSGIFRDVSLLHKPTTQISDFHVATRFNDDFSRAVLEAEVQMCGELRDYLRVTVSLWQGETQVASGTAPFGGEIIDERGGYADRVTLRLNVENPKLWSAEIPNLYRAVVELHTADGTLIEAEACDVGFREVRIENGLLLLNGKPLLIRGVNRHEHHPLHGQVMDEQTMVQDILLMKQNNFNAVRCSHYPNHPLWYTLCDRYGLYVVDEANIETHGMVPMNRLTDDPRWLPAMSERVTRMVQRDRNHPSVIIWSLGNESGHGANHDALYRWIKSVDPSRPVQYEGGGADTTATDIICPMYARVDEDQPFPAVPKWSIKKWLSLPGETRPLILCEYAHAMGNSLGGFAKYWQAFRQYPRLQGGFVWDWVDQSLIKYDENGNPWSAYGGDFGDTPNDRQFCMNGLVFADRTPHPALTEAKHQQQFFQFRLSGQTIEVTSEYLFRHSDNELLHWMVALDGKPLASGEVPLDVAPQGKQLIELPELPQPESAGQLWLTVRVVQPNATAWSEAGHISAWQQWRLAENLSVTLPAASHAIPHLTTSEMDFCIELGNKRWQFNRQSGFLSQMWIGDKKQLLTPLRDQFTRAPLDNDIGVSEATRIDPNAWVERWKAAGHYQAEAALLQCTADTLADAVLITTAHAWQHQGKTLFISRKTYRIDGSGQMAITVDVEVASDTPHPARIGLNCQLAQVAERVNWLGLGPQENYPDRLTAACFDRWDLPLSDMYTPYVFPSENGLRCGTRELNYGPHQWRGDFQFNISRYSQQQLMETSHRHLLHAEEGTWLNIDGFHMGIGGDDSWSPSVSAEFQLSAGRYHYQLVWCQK

SMILES: COc1ccc(-c2cn3c(C)c(C(=O)Nc4cccc(NC(C)=O)c4)sc3n2)cc1
- AC50 [1]: 6.44 µM (active)
- AC50 [2]: 17 µM (active)

SMILES: Cc1c(C(=O)NCc2ccc(C(C)C)cc2)sc(=O)n1Cc1ccc(S(=O)(=O)N(C)C)cc1
- IC50 [3]: 6.46 µM (active)

SMILES: Cc1ccc(C(=O)NNC(=O)c2ccc3c(c2)OCCO3)cc1
- IC50 (cells [4]): > 67.5 µM (inactive)
- IC50 [5]: > 67.5 µM (inactive)

SMILES: C#CCN(C[C@H]1[C@H](OC(=O)Nc2cccs2)[C@H](OC(=O)Nc2cccs2)C[C@H]2C(=O)N(c3ccccc3)C(=O)[C@@H]12)S(=O)(=O)c1ccc(C)cc1
- IC50 [6]: 19.9 µM (active)
- IC50 [7]: 34.5 µM (active)

SMILES: Cc1ccc(-c2csc(NC(=O)C3CCN(S(=O)(=O)c4cccs4)CC3)n2)cc1
- IC50 [3]: 8.11 µM (active)
- IC50 [8]: > 80 µM (inactive)
- IC50 (Jurkat): 8.06 µM (active)

SMILES: CC(C)(C)c1ccc(-c2n[nH]c(=S)n2CCCN2CCOCC2)cc1
- IC50 (Beta-lactamase [9]): > 59.6 µM (inactive)
- IC50 (Beta-lactamase [10]): > 59.6 µM (inactive)
- IC50 (Beta-lactamase [11]): > 59.6 µM (inactive)

SMILES: O=C(NCc1cccc(Cl)c1)C1=CC=CN2CCS(=O)(=O)N=C12
- IC50 [12]: 2.61 µM (active)

SMILES: COc1ccc(/C=C2\Oc3ccccc3C2=O)cc1 [4'-METHOXY-AURONE]
- IC50 [12]: 0.912 µM (active)

SMILES: CCOc1ccc(-n2nc3ccc(N)cc3n2)cc1
- IC50 [12]: 0.716 µM (active)

SMILES: Cc1cccc(NC(=O)c2ccc3ccccc3n2)c1C
- EC50 [13]: > 67.5 µM (inactive)

SMILES: O=c1c2ccccc2nnn1CSc1ccccc1F
- EC50 [13]: > 67.5 µM (inactive)

SMILES: COc1ccc(CCNC(=O)C(C)n2nc(C)c3c(C)n(-c4ccc(C)cc4)nc3c2=O)c(OC)c1 (centres undefined)
- IC50 [3]: 5.2 µM (active)

SMILES: Cn1cccc1-c1nc2ccccc2n1C
- IC50 [12]: 3.08 µM (active)

SMILES: CC(C)Cn1c(=O)c(C(=O)Nc2ccccc2S(N)(=O)=O)c(O)c2ccccc21
- EC50 [14]: 6.34 µM (active)
- IC50 [6]: 8.62 µM (active)
- IC50 [15]: > 20 µM (inactive)
- IC50 [7]: 61.2 µM (active)
- EC50 (Streptococcus): 28.6 µM (active)
- EC50 (Streptokinase A): > 150 µM (not active)

SMILES: O=C(NCCCn1ccnc1)c1cc(-c2cccs2)on1
- EC50 [16]: 16.9 µM (active)
- EC50 (H4): 12.3 µM (active)
- EC50 [13]: > 67.5 µM (inactive)
- EC50 [17]: 12.4 µM (active)
- EC50 (cells [18]): 13.2 µM (active)
- EC50 (cells [19]): > 350 µM (not active)

SMILES: CC(C)(C)CC(=O)Nc1nnc(SCC(=O)NCc2cccs2)s1
- IC50 (Beta-lactamase [9]): > 59.6 µM (inactive)
- IC50 (Beta-lactamase [10]): > 59.6 µM (inactive)
- IC50 (Beta-lactamase [11]): > 59.6 µM (inactive)

SMILES: CC(C)NC(=O)N1C[C@@H]2[C@H](c3ccccc31)[C@@H](CO)N2C(=O)c1cccnc1
- AC50 [1]: 10.1 µM (active)

SMILES: Cc1ccc(-c2nc3ccc(Br)cn3c2Cc2ccccc2)cc1
- IC50 (cells [4]): > 67.6 µM (inactive)
- IC50 [5]: > 67.6 µM (inactive)

SMILES: CCCN1CCN(CCCNC(=O)c2ccc3c(c2)NC(=O)c2ccccc2S3)CC1
- IC50 (cells [4]): > 67.5 µM (inactive)
- IC50 [5]: > 67.5 µM (inactive)

SMILES: Cc1ccc(NC(S)=NNC(=O)Nc2ccccc2)cc1
- IC50 (Beta-galactosidase): > 66.6 µM (inactive)
- IC50 (cells [4]): > 67.6 µM (inactive)
- IC50 [5]: > 67.6 µM (inactive)

SMILES: COc1ccc2[nH]c(C(=O)O)c(CCN3C(=O)c4ccc(C(=O)O)cc4C3=O)c2c1
- IC50 (Beta-lactamase [9]): > 59.6 µM (inactive)
- IC50 (Beta-lactamase [10]): > 59.6 µM (inactive)
- IC50 (Beta-lactamase [11]): > 59.6 µM (inactive)

SMILES: COc1ccc(NS(=O)(=O)c2ccc(NC(=S)NC(=O)/C=C/c3ccc(C)cc3)cc2)nn1
- IC50 [6]: 5.17 µM (active)
- IC50 [7]: 39.3 µM (active)

SMILES: Cc1ccnc(NC(=O)/C=C/c2cccs2)c1
- EC50 [13]: > 67.6 µM (inactive)
